Results published in US8669244B2, “Cucurbitane-triterpenoid compounds, pharmaceutical composition, use and preparation method thereof” (National Taiwan University, priority 2011, dated 2014).
pEC50: −log10 of the molar value.

Columns and labels:
[1] = target: T1, GAL4-hERβ ligand binding domain (LBD) chimeric receptor (Homo sapiens, UniProt Q92731); assay: Transactivation assay for estrogen receptor, ALP reporter, compound alone (ERβ); assay type: cell-based; conditions: for pEC50: compound alone; for Maximum activation for ERβ: concentration not given; for Activation of ERβ: under tested condition (maximum tolerable 2 μM)
T1 construct: expressed in transfected cells; host or cells: CHO-K1 (Chinese hamster cells), transient co-transfection with (UAS)4-ALP reporter plasmid
T1 sequence (Q92731 264-498 limits assumed, change not shown): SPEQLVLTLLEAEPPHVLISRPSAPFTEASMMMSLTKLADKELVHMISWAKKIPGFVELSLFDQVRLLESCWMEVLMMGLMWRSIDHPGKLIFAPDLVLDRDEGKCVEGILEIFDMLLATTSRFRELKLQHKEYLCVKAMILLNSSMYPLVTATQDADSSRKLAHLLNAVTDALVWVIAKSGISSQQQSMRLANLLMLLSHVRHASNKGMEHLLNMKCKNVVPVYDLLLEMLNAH
Text: (§1) 1. Estrogen Activity Analysis: Transactivation Assay for Estrogen Receptor
(§2) Plasmid pBKCMV containing GAL4-hERα (or ERβ) ligand binding domain (LBD) chimeric receptors and plasmid containing (UAS)4-alkaline phosphatase (ALP) […] were co-transfected into Chinese hamster cells (CHO-K1). Compounds with estrogenic activity would interact with estrogen-specific ER to induce the binding of GAL4 and upstream activation sequence (UAS)4 specifically to initiate the expression of ALP gene. Therefore, the ALP activity can be used to determine whether the samples to be assayed have the estrogenic activity.
(§3) The CHO-K1 cell purchased from the Food Industry Research and Development Institute Taiwan with an accession number of CCRC 60006 were cultivated with medium containing 10% FBS and Ham's F12 nutrient mixture (GIBCOBRL). Cells in high confluence were plated onto 96-well culture plate the day before transfection. The plate was then washed to remove the serum during the day of transfection, followed by addition of two plasmid DNA, GAL4-hER[…] and (UAS)4-ALP in the ratio of 1:1 together with Lipofectamine 2000 (GIBCOBRL) transfection agent and culture medium to form DNA-liposome complex for 5 hours. The sample to be assayed was added into the medium of transfected cells and cultivated for two days. The medium was aliquoted for ALP assay using 4-Nitrophenul phosphate disodium salt hexahydrate (pNPP) as the colorimetric substrate for alkaline phosphatase, and reading the absorbance of 405 nm.

[2] = target: T1, GAL4-hERβ ligand binding domain (LBD) chimeric receptor; assay: Transactivation assay, combination treatment with 1 nM E2 (ERβ); assay type: cell-based
Text: as §2, §3

[3] = target: T2, GAL4-hERα ligand binding domain (LBD) chimeric receptor (Homo sapiens, UniProt P03372); assay: Transactivation assay for estrogen receptor, ALP reporter, compound alone (ERα); assay type: cell-based; conditions: for Maximum activation for ERα: concentration not given; for Activation of ERα: under tested condition (maximum tolerable 2 μM)
T2 construct: expressed in transfected cells; host or cells: CHO-K1 (Chinese hamster cells), transient co-transfection with (UAS)4-ALP reporter plasmid
T2 sequence (P03372 311-547 limits assumed): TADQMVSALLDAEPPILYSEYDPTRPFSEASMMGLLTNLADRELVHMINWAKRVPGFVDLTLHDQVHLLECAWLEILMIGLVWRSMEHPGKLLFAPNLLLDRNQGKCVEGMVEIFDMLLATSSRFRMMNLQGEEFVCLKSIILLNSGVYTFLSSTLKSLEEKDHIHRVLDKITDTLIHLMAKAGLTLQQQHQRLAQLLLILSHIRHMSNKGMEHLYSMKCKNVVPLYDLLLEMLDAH
Text: as §1, §2
Cells in high confluence were plated onto 96-well culture plate the day before transfection. The plate was then washed to remove the serum during the day of transfection, followed by addition of two plasmid DNA, GAL4-hER[…] and (UAS)4-ALP in the ratio of 1:1 together with Lipofectamine 2000 (GIBCOBRL) transfection agent and culture medium to form DNA-liposome complex for 5 hours. The sample to be assayed was added into the medium of transfected cells and cultivated for two days.

[4] = target: T2, GAL4-hERα ligand binding domain (LBD) chimeric receptor; assay: Transactivation assay, combination treatment with 1 nM E2 (ERα); assay type: cell-based
Text: as §2, §3

[5] = system: CHO-K1 cells; assay: Cytotoxicity to the cells of the transactivation assay; assay type: cell-based, Chinese hamster

In the case of `CC1=C[C@H](O)CC(C)(C)[C@H]1/C=C/C(C)=C/C=C/C(C)=C/C=C/C=C(C)/C=C/C=C(C)/C=C/C1=C(C)C[C@@H](O)CC1(C)C` [lutein, Lutein], the “Maximum activation of ERβ” value ([1]; at 35 μM) was 26 % that of E2, the pEC50 [1] was 4.93 and the “Maximum activation of ERβ with E2” value ([2]; lutein at 18 (unit not given) + 1 nM E2) was 166 % that of E2.
`CC(C)=CC(O)C[C@@H](C)[C@H]1CC[C@@]2(C)[C@@H]3C=C[C@@]45OC[C@]3(CC[C@]12C)C4CC[C@H](O)C5(C)C` (single isomer, unassigned) [compound 6, 5β,19-epoxycucurbita-6,24-dien-3β,23ξ-diol] was tested, and the “Maximum activation effect for ERα” value ([3]; at 22 μM, relative to 1 nM E2) was 30 % of E2, the “Maximum activation effect for ERβ” value ([1]; at 22 μM, relative to 1 nM E2) was 23 % of E2 and the “ALP activity, E2-induced ERα activation remaining (E2 = 100%)” value ([4]; 22 μM compound + 1 nM E2) was 10%. For the same compound, the “ALP activity, E2-induced ERβ activation remaining (E2 = 100%)” value ([2]; 22 μM compound + 1 nM E2) was 24%.
`CC(C)=C/C=C/[C@@H](C)[C@H]1CC[C@@]2(C)c3ccc4c(c3CC[C@]12C)CC[C@H](O)C4(C)C` [compound 5, 19-nor-cucurbita-5(10),6,8,22(E),24-pentaen-3β-ol] was tested, and the “Maximum activation for ERα” value ([3]; relative to 1 nM E2) was 15 % of E2, the “Maximum activation for ERβ” value ([1]; relative to 1 nM E2) was 9 % of E2 and the “E2 induced activation of ERβ remaining” value ([2]; 1 μM compound + 1 nM E2, p<0.05) was 83 % of E2.
`CC(C)=C/C=C/[C@@H](C)[C@H]1CC[C@@]2(C)[C@@H]3C=CC4=C(CC[C@H](O)C4(C)C)[C@]3(C=O)CC[C@]12C` [compound 3, 3β-hydroxycucurbita-5(10),6,22(E),24-tetraen-19-al] was tested, and the “Activation of ERα” value [3] was “no significant activation”, the “Activation of ERβ” value [1] was “no significant activation” and the “ALP activity, E2-induced ERα activation remaining (E2 = 100%)” value ([4]; 2 μM compound + 1 nM E2) was 48%. The “ALP activity, E2-induced ERβ activation remaining (E2 = 100%)” value ([2]; 2 μM compound + 1 nM E2) was 73% and the “Cytotoxicity: maximum tolerable concentration for cells” value [5] was 2 µM.
With `CC(C)=C/C=C/[C@@H](C)[C@H]1CC[C@@]2(C)[C@@H]3C=C[C@@]45OC(=O)[C@]3(CC[C@]12C)C4CC[C@H](O)C5(C)C` (stereo partly drawn) [compound 1, cucurbita-6,22(E),24-trien-3β-ol-19,5β-olide] the “Maximum activation for ERα” value ([3]; relative to 1 nM E2) was 12 % of E2 and the “Maximum activation for ERβ” value ([1]; relative to 1 nM E2) was 10 % of E2.
In the case of `COC(OC)[C@@]12CC[C@]3(C)[C@@H]([C@H](C)/C=C/C=C(C)C)CC[C@@]3(C)[C@@H]1C=CC1=C2CC[C@H](O)C1(C)C` [compound 4, 19-dimethoxycucurbita-5(10),6,22(E),24-tetraen-3β-ol], the “Activation of ERα” value [3] was “no significant activation”, the “Activation of ERβ” value [1] was “no significant activation” and the “Cytotoxicity: maximum tolerable concentration for cells” value [5] was 2 µM.
For `CC1(C)C[C@H](O)C[C@@]2(C)OC(=O)C=C12` [loliolide, Loliolide], the “Maximum activation of ERα” value ([3]; at 102 (unit not given)) was 24 % of E2, the pEC50 ([3]; compound alone) was 4.85 and the “Maximum activation of ERβ” value ([1]; at 51 μM) was 20 % of E2. The pEC50 [1] was 4.78, the “Maximum activation of ERα with E2” value ([4]; 102 μM + 1 nM E2) was 146 % of E2 and the “Maximum activation of ERβ with E2” value ([2]; 51 μM + 1 nM E2) was 145 % of E2.
For `CC(C)=C/C=C/[C@@H](C)[C@H]1CC[C@@]2(C)[C@@H]3C=C[C@@]45OC(O)[C@]3(CC[C@]12C)C4CC[C@H](O)C5(C)C` (stereo partly drawn) [compound 2, 5β,19-epoxycucurbita-6,22(E),24-trien-3β,19-diol], the “Maximum activation for ERα” value ([3]; relative to 1 nM E2) was 15 % of E2 and the “Maximum activation for ERβ” value ([1]; relative to 1 nM E2) was 8 % of E2.
